# Reference: patent publication US20040063662A1, “Selenophene anti-tumor agents” (priority 1996, published 2004)
# Legend:
# [1] = system: CCRF-CEM; assay: NCI human tumor cell panel: CCRF-CEM (Leukemia); type: cell-based; conditions: for GI50: read-out: Log10 GI50 (converted); for IC (TGI): read-out: Log10 TGI (converted)
# [2] = system: K-562; assay: NCI human tumor cell panel: K-562 (Leukemia); type: cell-based; conditions: for GI50: K562, K-562, read-out: Log10 GI50 (converted); for IC (TGI): K562, K-562, read-out: Log10 TGI (converted)
# [3] = system: MOLT-4; assay: NCI human tumor cell panel: MOLT-4 (Leukemia); type: cell-based; conditions: for GI50: MOLT-4, read-out: Log10 GI50 (converted); for IC (TGI): MOLT-4, read-out: Log10 TGI (converted)
# [4] = system: RPMI-8226; assay: NCI human tumor cell panel: RPMI-8226 (Leukemia); type: cell-based; conditions: for GI50: RPMI-8226, read-out: Log10 GI50 (converted); for IC (TGI): RPMI-8226, read-out: Log10 TGI
# [5] = system: A549/ATCC; assay: NCI human tumor cell panel: A549/ATCC (Non-Small Cell Lung Cancer); type: cell-based; conditions: for IC (TGI): read-out: Log10 TGI (converted)
# [6] = system: NCI-H460; assay: NCI human tumor cell panel: NCI-H460 (Non-Small Cell Lung Cancer); type: cell-based; conditions: for GI50: NCI-H460, read-out: Log10 GI50 (converted); for IC (TGI): NCI-H460, read-out: Log10 TGI (converted)
# [7] = system: HCC-2998; assay: NCI human tumor cell panel: HCC-2998 (Colon Cancer); type: cell-based; conditions: for GI50: HCC-2998, read-out: Log10 GI50 (converted); for IC (TGI): HCC-2998, read-out: Log10 TGI (converted)
# [8] = system: HCT-116; assay: NCI human tumor cell panel: HCT-116 (Colon Cancer); type: cell-based; conditions: for GI50: HCT-116, read-out: Log10 GI50 (converted); for IC (TGI): HCT-116, read-out: Log10 TGI (converted)
# [9] = system: SF-295; assay: NCI human tumor cell panel: SF-295 (CNS Cancer); type: cell-based; conditions: for GI50: SF-295, read-out: Log10 GI50 (converted)
# [10] = system: SNB-19; assay: NCI human tumor cell panel: SNB-19 (CNS Cancer); type: cell-based; conditions: for GI50: SNB-19, read-out: Log10 GI50 (converted)
# [11] = system: SNB-75; assay: NCI human tumor cell panel: SNB-75 (CNS Cancer); type: cell-based; conditions: for GI50: SNB-75, read-out: Log10 GI50 (converted); for IC (TGI): SNB-75, read-out: Log10 TGI (converted)
# [12] = system: U251; assay: NCI human tumor cell panel: U251 (CNS Cancer); type: cell-based; conditions: for GI50: U-251, U251, read-out: Log10 GI50 (converted); for IC (TGI): U-251, U251, read-out: Log10 TGI (converted)
# [13] = system: LOX IMVI; assay: NCI human tumor cell panel: LOX IMVI (Melanoma); type: cell-based; conditions: for GI50: read-out: Log10 GI50 (converted); for IC (TGI): read-out: Log10 TGI (converted)
# [14] = system: M14; assay: NCI human tumor cell panel: M14 (Melanoma); type: cell-based; conditions: for GI50: M14, read-out: Log10 GI50 (converted); for IC (TGI): M14, read-out: Log10 TGI (converted)
# [15] = system: SK-MEL-5; assay: NCI human tumor cell panel: SK-MEL-5 (Melanoma); type: cell-based; conditions: for GI50: SK-MEL-5, read-out: Log10 GI50 (converted); for IC (TGI): SK-MEL-5, read-out: Log10 TGI (converted)
# [16] = system: UACC-257; assay: NCI human tumor cell panel: UACC-257 (Melanoma); type: cell-based; conditions: for GI50: UACC-257, read-out: Log10 GI50 (converted); for IC (TGI): UACC-257, read-out: Log10 TGI (converted)
# [17] = system: IGROV1; assay: NCI human tumor cell panel: IGROV1 (Ovarian Cancer); type: cell-based; conditions: for GI50: IGROV-1, IGROV1, read-out: Log10 GI50 (converted); for IC (TGI): IGROV-1, IGROV1, read-out: Log10 TGI (converted)
# [18] = system: OVCAR-3; assay: NCI human tumor cell panel: OVCAR-3 (Ovarian Cancer); type: cell-based; conditions: for GI50: OVCAR-3, read-out: Log10 GI50 (converted); for IC (TGI): OVCAR-3, read-out: Log10 TGI (converted)
# [19] = system: OVCAR-8; assay: NCI human tumor cell panel: OVCAR-8 (Ovarian Cancer); type: cell-based; conditions: for GI50: OVCAR-8, read-out: Log10 GI50 (converted); for IC (TGI): OVCAR-8, read-out: Log10 TGI (converted)
# [20] = system: 786-0; assay: NCI human tumor cell panel: 786-0 (Renal Cancer); type: cell-based; conditions: for IC (TGI): 786-0, read-out: Log10 TGI (converted)
# [21] = system: ACHN; assay: NCI human tumor cell panel: ACHN (Renal Cancer); type: cell-based; conditions: for GI50: read-out: Log10 GI50 (converted); for IC (TGI): read-out: Log10 TGI (converted)
# [22] = system: TK-10; assay: NCI human tumor cell panel: TK-10 (Renal Cancer); type: cell-based; conditions: for GI50: TK-10, read-out: Log10 GI50 (converted); for IC (TGI): TK-10, read-out: Log10 TGI (converted)
# [23] = system: UO-31; assay: NCI human tumor cell panel: UO-31 (Renal Cancer); type: cell-based; conditions: for GI50: UO-31, read-out: Log10 GI50 (converted); for IC (TGI): UO-31, read-out: Log10 TGI (converted)
# [24] = system: PC-3; assay: NCI human tumor cell panel: PC-3 (Prostate Cancer); type: cell-based; conditions: for GI50: PC-3, read-out: Log10 GI50 (converted); for IC (TGI): PC-3, read-out: Log10 TGI (converted)
# [25] = system: DU-145; assay: NCI human tumor cell panel: DU-145 (Prostate Cancer); type: cell-based; conditions: for GI50: DU-145, read-out: Log10 GI50 (converted); for IC (TGI): DU-145, read-out: Log10 TGI (converted)
# [26] = system: MCF7; assay: NCI human tumor cell panel: MCF7 (Breast Cancer); type: cell-based; conditions: for GI50: MCF7, read-out: Log10 GI50 (converted); for IC (TGI): MCF7, read-out: Log10 TGI (converted)
# [27] = system: MCF7/ADR-RES; assay: NCI human tumor cell panel: MCF7/ADR-RES (Breast Cancer); type: cell-based; conditions: for GI50: read-out: Log10 GI50 (converted); for IC (TGI): read-out: Log10 TGI (converted)
# [28] = system: HS 578T; assay: NCI human tumor cell panel: HS 578T (Breast Cancer); type: cell-based; conditions: for GI50: read-out: Log10 GI50 (converted); for IC (TGI): read-out: Log10 TGI (converted)
# [29] = system: MDA-MB-435; assay: NCI human tumor cell panel: MDA-MB-435 (Breast Cancer); type: cell-based; conditions: for GI50: MDA-MB-435, read-out: Log10 GI50 (converted)
# [30] = system: MDA-N; assay: NCI human tumor cell panel: MDA-N (Breast Cancer); type: cell-based; conditions: for GI50: read-out: Log10 GI50 (converted); for IC (TGI): read-out: Log10 TGI (converted)
# [31] = system: BT-549; assay: NCI human tumor cell panel: BT-549 (Breast Cancer); type: cell-based; conditions: for GI50: BT-549, read-out: Log10 GI50 (converted); for IC (TGI): BT-549, read-out: Log10 TGI (converted)
# [32] = system: HOP-92; assay: NCI human tumor cell panel: HOP-92 (Non-Small Cell Lung Cancer); conditions: for GI50: HOP-92, read-out: Log10 GI50 (converted); for IC (TGI): HOP-92, read-out: Log10 TGI
smiles,measurement,setting,value
OCc1ccc(-c2ccc(-c3ccc(CO)[se]3)s2)[se]1 [compound 676632],GI50,[1],87.1 µM
same,IC (TGI),[1],> 100 µM
same,GI50,[2],47.9 nM
same,IC (TGI),[2],> 100 µM
same,GI50,[3],> 100 µM
same,IC (TGI),[3],> 100 µM
same,GI50,[4],> 100 µM
same,IC (TGI),[4],> 100 µM
same,GI50,[5]; read-out: Log10 GI50 (converted),2630 nM
same,IC (TGI),[5],> 100 µM
same,GI50,[6],46.8 nM
same,IC (TGI),[6],> 100 µM
same,GI50,[7],178 nM
same,IC (TGI),[7],0.55 µM
same,GI50,[8],> 100000 nM
same,IC (TGI),[8],> 100 µM
same,GI50,[9],> 100 µM
same,IC (TGI),"[9]; SF-295, read-out: Log10 TGI (converted)",> 100 µM
same,GI50,[10],42.7 µM
same,IC (TGI),"[10]; SNB-19, read-out: Log10 TGI (converted)",> 100 µM
same,GI50,[11],> 100 µM
same,IC (TGI),[11],> 100 µM
same,GI50,[12],35.5 nM
same,IC (TGI),[12],12 µM
same,GI50,[13],> 100 µM
same,IC (TGI),[13],< 100 µM
same,GI50,[14],> 100 µM
same,IC (TGI),[14],> 100 µM
same,GI50,[15],63.1 µM
same,IC (TGI),[15],> 100 µM
same,GI50,[16],21.4 nM
same,IC (TGI),[16],> 100 µM
same,GI50,[17],32.4 nM
same,IC (TGI),[17],0.275 µM
same,GI50,[18],19.5 nM
same,IC (TGI),[18],0.0676 µM
same,GI50,[19],> 100 µM
same,IC (TGI),[19],> 100 µM
same,GI50,"[20]; 786-0, read-out: Log10 GI50 (converted)",> 100 µM
same,IC (TGI),[20],> 100 µM
same,GI50,[21],> 100 µM
same,IC (TGI),[21],> 100 µM
same,GI50,[22],28.2 nM
same,IC (TGI),[22],0.0813 µM
same,GI50,[23],> 100 µM
same,IC (TGI),[23],> 100 µM
same,GI50,[24],> 100 µM
same,IC (TGI),[24],> 100 µM
same,GI50,[25],95.5 µM
same,IC (TGI),[25],> 100 µM
same,GI50,[26],12.3 nM
same,IC (TGI),[26],> 100 µM
same,GI50,[27],> 100 µM
same,IC (TGI),[27],> 100 µM
same,GI50,[28],> 100000 nM
same,IC (TGI),[28],> 100 µM
same,GI50,[29],> 100 µM
same,GI50,[30],> 100 µM
same,IC (TGI),[30],> 100 µM
same,GI50,[31],0.195 µM
same,IC (TGI),[31],> 100 µM
same,GI50,[32],> 100 µM
same,CC50,"[32]; HOP-92, read-out: Log10 LC50 (converted)",> 100 µM
same,IC (TGI),[32],> 100 µM
O=Cc1ccc(-c2ccc(-c3ccc(C=O)[se]3)s2)s1 [compound 688829],GI50,[1],7.94 µM
same,IC (TGI),[1],> 100 µM
same,GI50,[2],251 nM
same,IC (TGI),[2],> 100 µM
same,GI50,[3],57.5 µM
same,IC (TGI),[3],> 100 µM
same,GI50,[4],38.9 µM
same,IC (TGI),[4],> 100 µM
same,IC (TGI),[5],> 100 µM
same,GI50,[6],141 nM
same,IC (TGI),[6],> 100 µM
same,GI50,[7],389 nM
same,IC (TGI),[7],> 100 µM
same,GI50,[8],295 nM
same,IC (TGI),[8],> 100 µM
same,GI50,[9],> 100 µM
same,GI50,[10],> 100 µM
same,GI50,[11],75.9 µM
same,IC (TGI),[11],> 100 µM
same,GI50,[12],245 nM
same,IC (TGI),[12],25.7 µM
same,GI50,[13],16.6 µM
same,IC (TGI),[13],> 100 µM
same,GI50,[14],20 µM
same,IC (TGI),[14],> 100 µM
same,GI50,[15],23.4 µM
same,IC (TGI),[15],> 100 µM
same,GI50,[16],195 nM
same,IC (TGI),[16],0.513 µM
same,GI50,[17],178 nM
same,IC (TGI),[17],2.45 µM
same,GI50,[18],129 nM
same,IC (TGI),[18],0.631 µM
same,GI50,[19],15.1 µM
same,IC (TGI),[19],93.3 µM
same,IC (TGI),[20],26.9 µM
same,GI50,[21],> 100 µM
same,IC (TGI),[21],> 100 µM
same,GI50,[22],28.2 nM
same,IC (TGI),[22],0.209 µM
same,GI50,[23],> 100 µM
same,IC (TGI),[23],> 100 µM
same,GI50,[24],28.2 µM
same,IC (TGI),[24],> 100 µM
same,GI50,[25],> 100 µM
same,IC (TGI),[25],> 100 µM
same,GI50,[26],191 nM
same,IC (TGI),[26],> 100 µM
same,GI50,[27],30.2 µM
same,IC (TGI),[27],> 100 µM
same,GI50,[28],2880 nM
same,IC (TGI),[28],> 100 µM
same,GI50,[29],33.1 µM
same,IC (TGI),"[29]; MDA-MB-435, read-out: Log10 TGI (converted)",> 100 µM
same,GI50,[30],20.9 µM
same,IC (TGI),[30],> 100 µM
same,GI50,[31],56.2 µM
same,IC (TGI),[31],> 100 µM
same,GI50,[32],97.7 µM
same,IC (TGI),[32],> 100 µM
